# Starred links: 1 amine or outer side, 2 acyl side, 3 side chain; linkers in the order of their positions; H or OH if unused. Positions of bridges follow the written chain, without caps; N, C: chain ends. Non-standard residues stand in square brackets, D forms with d. Residues, ends and D or L forms follow the SMILES beside them. Triazole bridges read from a SMILES are 1,4-linked. NMeW = CN[C@@H](Cc1c[nH]c2ccccc12)C(=O)O; Lys(N3) = [N-]=[N+]=NCCCC[C@H](N)C(=O)O; Phe(4-NH2) = Nc1ccc(C[C@H](N)C(=O)O)cc1; NMeR = CN[C@@H](CCCNC(=N)N)C(=O)O; Suc = O=C(CCC(=O)[*:2])[*:1]; Nle = CCCC[C@H](N)C(=O)O; Pra = C#CC[C@H](N)C(=O)O; Dab = NCC[C@H](N)C(=O)O
# Target: T1, human recombinant MC1R (Homo sapiens, UniProt Q01726)
# T1 construct: host or cells: CHO-K1
# Test: cyclic AMP (cAMP) functional assay, MC1R stable cell line (CHO-K1);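 note: cells with test compound for 60 min at room temperature in buffer containing IBMX, then cAMP quantified by Eu-cAMP tracer and ULight anti-cAMP detection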
# Type: cell-based
# Settings: cAMP functional assay
# T1 sequence (Q01726 whole entry): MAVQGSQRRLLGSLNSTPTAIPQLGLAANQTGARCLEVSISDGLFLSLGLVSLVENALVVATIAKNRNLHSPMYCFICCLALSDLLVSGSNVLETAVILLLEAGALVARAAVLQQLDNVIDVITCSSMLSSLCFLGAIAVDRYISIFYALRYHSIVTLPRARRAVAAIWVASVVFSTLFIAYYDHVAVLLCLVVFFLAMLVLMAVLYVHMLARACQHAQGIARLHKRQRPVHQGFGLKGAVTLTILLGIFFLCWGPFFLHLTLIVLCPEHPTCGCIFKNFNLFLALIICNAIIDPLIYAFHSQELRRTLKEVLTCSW
row,Compound,IC50
1,CSCC[C@H](NC(=O)[C@H](CO)NC(=O)[C@H](Cc1ccc(O)cc1)NC(=O)[C@H](CO)NC(C)=O)C(=O)N[C@@H](CCC(=O)O)C(=O)N[C@@H](Cc1c[nH]cn1)C(=O)N[C@@H](Cc1ccccc1)C(=O)N[C@@H](CCCNC(=N)N)C(=O)N[C@@H](Cc1c[nH]c2ccccc12)C(=O)NCC(=O)N[C@@H](CCCCN)C(N)=O [KR-006],0.11 nM
2,CSCC[C@H](NC(=O)[C@H](CO)NC(=O)[C@H](Cc1ccc(O)cc1)NC(=O)[C@H](CO)NC(C)=O)C(=O)N[C@@H](CCC(=O)O)C(=O)N[C@@H](Cc1c[nH]cn1)C(=O)N[C@@H](Cc1ccccc1)C(=O)N[C@@H](CCCNC(=N)N)C(=O)N(C)[C@@H](Cc1c[nH]c2ccccc12)C(=O)NCC(=O)N[C@@H](CCCCN)C(=O)N1CCC[C@H]1C(=O)N[C@H](C(N)=O)C(C)C [KR-024],0.88 nM
3,"CCCC[C@H](NC(C)=O)C(=O)N[C@H]1CSCc2cccc(c2)CSC[C@@H](C(=O)N[C@@H](Cc2c[nH]c3ccccc23)C(N)=O)NC(=O)[C@H](CCCNC(=N)N)NC(=O)[C@@H](Cc2ccccc2)NC(=O)[C@H](Cc2c[nH]cn2)NC1=O [KR-032, Ac-Nle-cyc(Cys-His-DPhe-Arg-Cys)-Trp, L: m-xylene-NH2]",0.081 nM
4,CCCC[C@@H]1NC(=O)CSC[C@@H](C(N)=O)NC(=O)[C@H](CCCCN)NC(=O)CNC(=O)[C@H](Cc2c[nH]c3ccccc23)NC(=O)[C@H](CCCNC(=N)N)NC(=O)[C@H](Cc2ccccc2)NC(=O)[C@H](Cc2c[nH]cn2)NC(=O)[C@H](CCC(=O)O)NC1=O [KR-036] ({CH2CO}-[Nle]EHFRWGKC-NH2; thioether N-9),0.88 nM
5,"CCCC[C@H](NC(C)=O)C(=O)N[C@H]1CCCCn2cc(nn2)C[C@@H](C(=O)N[C@@H](CCCCN)C(N)=O)NC(=O)[C@H](Cc2c[nH]c3ccccc23)NC(=O)[C@H](CCCNC(=N)N)NC(=O)[C@@H](Cc2ccccc2)NC(=O)[C@H](Cc2c[nH]cn2)NC1=O [KR-037, Ac-Nle-[Lys(N3)-His-DPhe-Arg-Trp-Pra]-Lys-NH2] (Ac-[Nle][Lys(N3)]H[dF]RW[Pra]K-NH2; triazole 2-7)",0.024 nM
6,"CCCC[C@H](NC(C)=O)C(=O)N[C@H]1CCNC(=O)CCC(=O)NCC[C@@H](C(N)=O)NC(=O)[C@H](Cc2c[nH]c3ccccc23)NC(=O)[C@H](CCCNC(=N)N)NC(=O)[C@@H](Cc2ccccc2)NC(=O)[C@H](Cc2c[nH]cn2)NC1=O [KR-041, Ac-Nle-[Dab-His-DPhe-Arg-Trp-Dab] Linker: succinic acid-NH2] (Ac-[Nle][Dab]H[dF]RW[Dab]-NH2; linker 2-7 via Suc (inferred))",0.04 nM
7,"CCCC[C@H](NC(C)=O)C(=O)N[C@H]1CCn2cc(nn2)COCc2cn(nn2)CC[C@@H](C(N)=O)NC(=O)[C@H](Cc2c[nH]c3ccccc23)NC(=O)[C@H](CCCNC(=N)N)NC(=O)[C@@H](Cc2ccccc2)NC(=O)[C@H](Cc2c[nH]cn2)NC1=O [KR-042, Ac-Nle-[Dab(N3)-His-DPhe-Arg-Trp-Dab(N3)] linkr: 3,3′-Oxybis[1-propyne]-NH2]",0.16 nM
8,"CCCC[C@H](NC(C)=O)C(=O)N[C@H]1CCCCn2cc(nn2)C[C@@H](C(N)=O)NC(=O)[C@H](Cc2c[nH]c3ccccc23)NC(=O)[C@H](CCCNC(=N)N)NC(=O)[C@@H](Cc2ccccc2)NC(=O)[C@H](Cc2ccc(N)cc2)NC1=O [KR-047, Ac-Nle-[Lys(N3)-Phe(4-NH2)-DPhe-Arg-Trp-Pra]-NH2] (Ac-[Nle][Lys(N3)][Phe(4-NH2)][dF]RW[Pra]-NH2; triazole 2-7)",> 50 nM
9,"CCCC[C@H](NC(C)=O)C(=O)N[C@H]1CCCCn2cc(nn2)C[C@@H](C(N)=O)NC(=O)[C@H](Cc2c[nH]c3ccccc23)N(C)C(=O)[C@H](CCCNC(=N)N)N(C)C(=O)[C@@H](Cc2ccccc2)NC(=O)[C@H](Cc2c[nH]cn2)NC1=O [KR-050, Ac-Nle-[Lys(N3)-His-DPhe-NMeArg-NMeTrp-Pra]-NH2] (Ac-[Nle][Lys(N3)]H[dF][NMeR][NMeW][Pra]-NH2; triazole 2-7)",0.081 nM
